Results taken from US9714250B2, “Crystalline forms of temozolomide and the method for preparing same” (Jiangsu Tasly Diyi Pharmaceutical Co., Ltd., priority 2013, dated 2017).

What was measured:
Assay type in all cases: physicochemical
Solubility test = conditions: for Amount of solvent for dissolving tested drug: about 10 mg tested drug
Experimental: It should be noted that each crystalline form of Form A, Form B and Form C has similar solubility properties. Hereinafter, Form A0, B0 and C were chosen only for illustrative purpose.
1. Solubility test of the crystalline Form A of Temozolomide (Form A0 prepared by the method of EXAMPLE 1). Solubility properties were assayed respectively by using DMSO, methanol, water, glacial acetic acid, 0.1M HCl, 0.1M NaOH and ethanol as the solvents.
2. Solubility test of the crystalline form B of Temozolomide (Form B0 prepared by the method of EXAMPLE 6). Solubility properties were assayed respectively by using DMSO, methanol, water, glacial acetic acid, 0.1M HCl, 0.1M NaOH and ethanol as the solvents.
3. Solubility test of the crystalline form C of Temozolomide (Form C prepared by the method of EXAMPLE 14). Solubility properties were assayed respectively by using DMSO, methanol, water, glacial acetic acid, 0.1M HCl, 0.1M NaOH and ethanol as the solvents.

[1] = Light exposure test (stability); conditions: for Appearance and color / Content / Drying loss / Related substances: light intensity 4500±500Lx; for Related substances: HPLC
Experimental: (§1) In the following test, related substances were determined as follows: HPLC method was used and chromatographic conditions were as follows: C18 column using octadecylsilane bonded silica gel as the filler, isocratic elution using methanol: 0.5% glacial acetic acid solution (10:90) as the mobile phase, and detection wavelength was at 254 nm.
Crystalline form A of Temozolomide (Form A0 prepared by the method of EXAMPLE 1) was exposed under conditions of light intensity of 4500±500Lx, sampled and determined on the 5th and 10th day.
Crystalline form B of Temozolomide (Form B0 prepared by the method of EXAMPLE 6) was placed, exposed under conditions of light intensity of 4500±500Lx, sampled and determined on the 5th and 10th day.
Crystalline Form C of Temozolomide (Form C prepared by the method of EXAMPLE 14) was placed, exposed under conditions of light intensity of 4500±500Lx, sampled and determined on the 5th and 10th day.

[2] = High temperature test (stability); conditions: for Appearance and color / Content / Drying loss / Related substances: 60° C. incubator; for Related substances: HPLC
Experimental: as §1
Crystalline form A of Temozolomide (Form A0 prepared by the method of EXAMPLE 1) was placed in 60° C. incubator, sampled and determined on the 5th and 10th day.
Crystalline Form B of Temozolomide (Form B0 prepared by the method of EXAMPLE 6) was placed in 60° C. incubator, sampled and determined on the 5th and 10th day.
Crystalline Form C of Temozolomide (Form C prepared by the method of EXAMPLE 14) was placed in 60° C. incubator, sampled and determined on the 5th and 10th day.

[3] = High humidity test (stability); conditions: for Related substances: HPLC
Experimental: as §1
Crystalline Form A of Temozolomide (Form A0 prepared by the method of EXAMPLE 1) was placed in 25° C. incubator (relative humidity: 75±5%), sampled and determined on the 5th and 10th day.
Crystalline Form B of Temozolomide (Form B0 prepared by the method of EXAMPLE 6) was placed in 25° C. incubator (relative humidity: 75±5%), sampled and determined on the 5th and 10th day.
Crystalline Form C of Temozolomide (Form C prepared by the method of EXAMPLE 14) was placed in 25° C. incubator (relative humidity: 75±5%), sampled and determined on the 5th and 10th day.

[4] = Stability test, overall conclusions; conditions: light exposure, high-temperature, high-humidity and accelerated tests
Experimental: as §1
It should be noted that each crystalline form of Form A, Form B and Form C has similar stability properties. Hereinafter, Form A0, Form B0 and Form C were chosen only for illustrative purpose.

[5] = 25° C., relative humidity 75±5%, 0th day
[6] = 25° C., relative humidity 75±5%, 5th day
[7] = 25° C., relative humidity 75±5%, 10th day

With `Cn1nnc2c(C(N)=O)ncn2c1=O` [Form C, Temozolomide] the “Amount of solvent for dissolving 1 g of tested drug” value (“Amount of solvent … of tested drug” below) (Solubility test; solvent 0.1M HCl) was 800 mL, the Solubility (Solubility test; solvent 0.1M HCl) was “Slightly soluble” and the “Amount of solvent for dissolving tested drug” value (Solubility test; solvent 0.1M HCl) was 8.0 mL. The “Amount of solvent … of tested drug” value (Solubility test; solvent 0.1M NaOH) was 300 mL, the Solubility (Solubility test; solvent 0.1M NaOH) was “Slightly soluble” and the “Amount of solvent for dissolving tested drug” value (Solubility test; solvent 0.1M NaOH) was 3.0 mL. For the same compound, the “Amount of solvent … of tested drug” value (Solubility test; solvent DMSO) was 80 mL, the Solubility (Solubility test; solvent DMSO) was “sparingly” and the “Amount of solvent for dissolving tested drug” value (Solubility test; solvent DMSO) was 0.8 mL. The “Amount of solvent … of tested drug” value (Solubility test; solvent Ethanol) was 6000 mL, the Solubility (Solubility test; solvent Ethanol) was “Very slightly” and the “Amount of solvent for dissolving tested drug” value (Solubility test; solvent Ethanol) was 60 mL. For the same compound, the “Amount of solvent … of tested drug” value (Solubility test; solvent Glacial acetic acid) was 300 mL, the Solubility (Solubility test; solvent Glacial acetic acid) was “Slightly soluble” and the “Amount of solvent for dissolving tested drug” value (Solubility test; solvent Glacial acetic acid) was 3.0 mL. The “Amount of solvent … of tested drug” value (Solubility test; solvent Methanol) was 800 mL, the Solubility (Solubility test; solvent Methanol) was “Slightly soluble” and the “Amount of solvent for dissolving tested drug” value (Solubility test; solvent Methanol) was 8.0 mL. The “Amount of solvent … of tested drug” value (Solubility test; solvent Water) was 800 mL, the Solubility (Solubility test; solvent Water) was “Slightly soluble” and the “Amount of solvent for dissolving tested drug” value (Solubility test; solvent Water) was 8.0 mL. The “Stability in the light exposure test (conclusion)” value ([1]; 4500±500Lx, 10 days) was “stable”, the Appearance and color ([1]; 0th day) was “White powder” and the Content ([1]; 0th day) was 99.91%. For the same compound, the Drying loss ([1]; 0th day) was 0.27%, the Related substances ([1]; 0th day) was “Not detected” and the Appearance and color ([1]; 5th day) was “White powder”. The Content ([1]; 5th day) was 99.90%, the Drying loss ([1]; 5th day) was 0.30% and the Related substances ([1]; 5th day) was “Not detected”. For the same compound, the Appearance and color ([1]; 10th day) was “White powder”, the Content ([1]; 10th day) was 99.96% and the Drying loss ([1]; 10th day) was 0.32%. For the same compound, the Related substances ([1]; 10th day) was “Not detected”, the Appearance and color ([2]; 0th day) was “White powder” and the Content ([2]; 0th day) was 99.91%. For the same compound, the Drying loss ([2]; 0th day) was 0.35%, the Related substances ([2]; 0th day) was “Not detected” and the Appearance and color ([2]; 5th day) was “White powder”. For the same compound, the Content ([2]; 5th day) was 99.79%, the Drying loss ([2]; 5th day) was 0.37% and the Related substances ([2]; 5th day) was “Not detected”. For the same compound, the Appearance and color ([2]; 10th day) was “White powder”, the Content ([2]; 10th day) was 99.69% and the Drying loss ([2]; 10th day) was 0.34%. For the same compound, the Related substances ([2]; 10th day) was “Not detected”, the “Stability in the high-temperature test (conclusion)” value ([2]; 60° C., 10 days) was “stable” and the “Stability in the high-humidity test (conclusion)” value ([3]; 25° C., relative humidity 75±5%, 10 days) was “stable”. The Appearance and color [3, 5] was “White powder”, the Content [3, 5] was 99.91% and the “Weight gain of moisture absorption” value [3, 5] was 0%. For the same compound, the Related substances [3, 5] was “Not detected”, the Appearance and color [3, 6] was “White powder” and the Content [3, 6] was 99.85%. For the same compound, the “Weight gain of moisture absorption” value [3, 6] was 0.29%, the Related substances [3, 6] was “Not detected” and the Appearance and color [3, 7] was “White powder”. The Content [3, 7] was 99.63%, the “Weight gain of moisture absorption” value [3, 7] was 0.47% and the Related substances [3, 7] was “Not detected”. The “Weight gain of moisture absorption (trend)” value ([3]; under the high-humidity condition) was “slightly increased” and the “Change in the appearance and color, the drying loss, the content and the related substances” value [4] was “no obvious change”.
